Where “and” joins values, the source holds several entries; their conditions need not be identical. Equal entries are not always repeated. Entries after “also recorded” stand apart in the source; their conditions may differ. Where two headings read alike, the source gives them in different places.
Columns and labels:
endogenous Arf6 = assay: Arf6-GTP GGA3 pulldown assay in transfected HEK293T cells, with or without ionomycin; type: cell-based, human
Procedure: For the assessment of Arf6-GTP using a GGA-3 pulldown assay and western blot, HEK293T cells were transfected with FLAG-tagged WT, A350V, or R359C IQSEC2 in pCAGGS vector by calcium phosphate. Twenty-four hours after transfection, the cultures were treated with 5 μM ionomycin or ethanol vehicle for 5 mins, then lysed in 50 mM Tris-HCl, pH 7.5, 100 mM NaCl, 2 mM MgCl2, 0.2% SDS, 0.5% sodium deoxycholate, 1% Triton X-100, 10% glycerol, and 1× Halt protease inhibitor cocktail. An Arf6-GTP pull-down assay was carried out as described (Shoubridge et al, 2010). Briefly, lysates were cleared by centrifugation at 10,000 rpm for 10 min and incubated with GGA3:GST on glutathione-sepharose beads for 5 hours at 4° C. The beads were washed and bound proteins were eluted and probed by immunoblot with rabbit anti-Arf6 (1:750, Cell Signaling #5740). Lysates were also probed against total Arf6 and with rabbit anti-FLAG (1:1000; Covance #PRB-132P) to detect expression of FLAG-IQSEC2. Bands were visualized with the use of a LiCor Odyssey imaging system and quantified with Image Studio Lite. Each band was normalized to the untreated sham-transfected control. The data were statistically analyzed by one-way ANOVA followed by Tukey's Multiple Comparison Test for post-hoc analysis.
The activation of Arf6 (Arf6-GTP) by wild type, A350V, or R359C IQSEC2 in a GGA3 pulldown assay was also assessed. HEK 293T cells were transiently transfected with constructs to express either wild type, A350V or R359C IQSEC2, and endogenous Arf6 activation was tested with or without treatment with the calcium ionophore ionomycin. […] Cell lysates were incubated with beads coated with GGA3:GST to isolate the GTP-bound Arfs, and bound Arf6 was assessed by immunoblot (FIG. 4A).

[1] = test system: calmodulin-IQSEC2 interaction; assay: Binding of luciferase-IQSEC2 to calmodulin-sepharose in vitro; parameters: species or system human; details: for EC50: read-out: Free calcium concentration for half-maximal binding of calcium-calmodulin to IQSEC2
Procedure: The binding of wild type and mutant IQSEC2 to calmodulin was assessed in vitro using calmodulin-sepharose (BioVision, Milipetas, CA). Extracts from stably transfected cells were prepared in either buffer A [50 mM Tris pH 7.5; 150 mM NaCl, 10 mg/ml BSA; 5 mM EGTA and 0.1% Triton X-100] or buffer B [10 mM Tris pH 7.5; 150 mM NaCl, 5 mM EGTA, 5% glycerol, 0.5% Triton X-100]. Extracts were clarified by centrifugation at 14000 rpm at 4° C. to remove insoluble debris and the amount of luciferase activity in the extract assessed using the Promega luciferase assay system and a Turner TD 20/20 luminometer. Extracts (10,000-100,000 luciferase units) were then incubated in buffer A or buffer B with or without CaCl2 in a total volume of 1 cc. The concentration of free calcium in the incubation conditions was calculated using the maxchelator algorithm (maxchelator.stanford.edu) which is based on the ionic strength, pH, temperature and dissociation constant of EGTA for calcium. The concentration of free calcium used in these studies ranged from 0.73 nM to 2 mM. 10 μl of calmodulin-sepharose was added to the incubation and mixed on a rotary apparatus for 3-4 hours. The calmodulin-sepharose was washed twice with binding buffer, resuspended in 100 μl of luciferase reagent lysis buffer and 20 μl was assessed for luciferase activity.
Investigation of this interaction in a cell-free system in vitro using luciferase tagged IQSEC2 and calmodulin coupled to sepharose allowed for the precise control of calcium concentration which is known to dramatically affect the conformation and interactions of calmodulin with other proteins. In this system luciferase activity associated with calmodulin sepharose was used a quantitative readout of the calmodulin-IQSEC2 interaction. The IQ motif is present in over 100 proteins and in some cases preferentially binds to calcium-calmodulin while in other cases it binds preferentially to calcium-free calmodulin (apocalmodulin) (Bahler and Rhoads, 2002). […] However, when the effect of calcium on the IQSEC2 calmodulin interaction was assessed, it was observed that calcium increased the binding of calmodulin to IQSEC2. Upon reviewing the buffers used by the research group in assessing binding of IQSEC2 to calmodulin, it was discovered that the concentration of Triton X-100 used in the binding and wash buffers was differed. […] Triton X-100 binds to most proteins via both hydrophobic and polar interactions [Singh and Kishore, 2006] and may thereby disrupt protein-protein interactions at high concentrations. […] The binding of wild type or A350V luciferase-IQSEC2 to calmodulin was assessed over a wide range of calcium concentrations.

calmodulin = calmodulin (Homo sapiens, UniProt P0DP23); details: Persechini and Cronk et al, 1999; read-out: Kd of calcium for calmodulin; cited from earlier work

SMILES	Effect of ionomycin on Arf6 activation (endogenous Arf6; HEK293T cells transfected with A350V IQSEC2)	Effect of ionomycin on Arf6-GTP induction (endogenous Arf6; HEK293T cells transfected with R359C IQSEC2)	Arf6 activation (Arf6-GTP) compared to sham transfected cells (endogenous Arf6; HEK293T cells transfected with wild type IQSEC2, 5 μM ionomycin for 5 mins) [fold increase]	Change in binding of calmodulin to wild type IQSEC2 ([1]; 100 μM calcium, high (0.5%) Triton X-100)	Change in binding of calmodulin to wild type IQSEC2 ([1]; 100 uM calcium, low (0.1%) Triton X-100)	EC50 ([1]; A350V IQSEC2, 0.1% Triton X-100) [nM]	EC50 ([1]; wild type IQSEC2, 0.1% Triton X-100) [nM]	Kd (calmodulin)
C[C@H](CCC(=O)O)C[C@H](C)C[C@H](C)C(=O)/C=C(\O)[C@H](C)C[C@H](C)C/C=C/[C@@H](C)[C@@H](O)[C@@H](C)[C@@H](O)C[C@@H]1CC[C@@](C)([C@H]2CC[C@@](C)([C@@H](C)O)O2)O1 [ionomycin]	did not further increase Arf6 activation	unresponsive	8.03±1.89	–	–	–	–	–
[Ca+2] [calcium]	–	–	–	several fold decrease; also recorded: significant decrease	several fold increase; also recorded: significant increase	~1000	~1000	1000 nM and ~1000 nM
